Patent publication US20240140986A1, “SYNTHETIC URSOLIC ACID DERIVATIVES AND METHODS OF USE THEREOF” (REATA PHARMACEUTICALS, INC., priority 2021, published 2024)
Like-named read-outs stand apart in the source and are kept apart here.

What was measured:
[1] = test system: Nrf2 / ARE-dependent luciferase in AREc32 reporter cell line; assay: AREc32 luciferase reporter activation (Nrf2 induction); format: cell-based, human; conditions: for EC (2-fold): Homo sapiens, Arec32; for Relative Avg AREc32 EC2X Relative to RTA402 (fold): ratio to RTA402
How it was run: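 EC2X is the concentration raising luminescence 2-fold above DMSO-treated cells, from a nonlinear-regression dose–response fit. Compounds (0.03–1000 nM) were applied for nineteen hours, starting one day after seeding 20,000 reporter cells per well. Luciferase was read with One-Glo reagent.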

[2] = test system: IFNγ-induced NO production in RAW 264.7 cells; assay: Nitric Oxide Suppression Assay (IFNγ-induced NO, Griess nitrite readout); format: cell-based, mouse; conditions: for IC50: Mus musculus, read-out: Avg NO IC50 (nM) (Mean ± SD); for Avg NO IC50 Relative to RTA402 (fold): Table 2, ratio to RTA402
How it was run: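 RAW 264.7 mouse macrophages in RPMI 1640 with 0.5% FBS were pretreated 2 h with compound (0.1% DMSO final), then stimulated with 20 ng/mL IFNγ for 24 h at 37° C. Supernatant nitrite was read by Griess absorbance at 525 nm against a nitrite standard curve, normalized to DMSO-IFNγ wells; IC50 from curve fit. Viability by WST-1.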

[3] = Table 2, concentration increasing luminescence 2-fold above vehicle, 19 h treatment, read-out: Avg AREc32 EC2X (nM) (Mean ± SD)
[4] = Table 3, ursolic acid derivatives, read-out: Avg ARE EC-2X (nM) (Mean ± SD)
[5] = RAW264.7, Table 2, RAW 264.7 cells, 2 h pretreatment, 20 ng/mL interferon gamma 24 h
[6] = RAW264.7, Table 3, ursolic acid derivatives

| SMILES | EC (2-fold) [1, 3] [nM] | EC (2-fold) [1, 4] [nM] | Relative Avg AREc32 EC2X Relative to RTA402 (fold) ([1]; Table 2) | IC50 [2, 5] [nM] | IC50 [2, 6] [nM] | Avg NO IC50 Relative to RTA402 (fold) [2] [fold] |
| --- | --- | --- | --- | --- | --- | --- |
| C[C@@H]1[C@H]2[C@H]3C(=O)C=C4[C@@]5(C)C=C(C#N)C(=O)C(C)(C)[C@@H]5CC[C@@]4(C)[C@]3(C)CC[C@@]2(Cn2ccnn2)CC[C@H]1C [Compound T50] | 8.26 ± 1.39 | 8.26 ± 1.39 | 0.666 ± 0.148 | 9.81 ± 2.79 | 9.81 ± 2.79 | 3.18 ± 0.30 |
| C[C@@H]1[C@H]2[C@H]3C(=O)C=C4[C@@]5(C)C=C(C#N)C(=O)C(C)(C)[C@@H]5CC[C@@]4(C)[C@]3(C)CC[C@@]2(Cn2ccnc2)CC[C@H]1C [Compound T51] | 15.3 ± 3.6 | 15.3 ± 3.6 | 1.2 ± 0.1 | 17.4 ± 2.5 | 17.4 ± 2.5 | 5.79 ± 0.73 |
| C[C@@H]1[C@H]2[C@H]3C(=O)C=C4[C@@]5(C)C=C(C#N)C(=O)C(C)(C)[C@@H]5CC[C@@]4(C)[C@]3(C)CC[C@@]2(Cn2cnnn2)CC[C@H]1C [Compound T52] | 8.74 ± 0.51 | – | 0.654 ± 0.079 | 8.99 ± 1.84 | – | 3.35 ± 0.65 |
| COC(=O)N1CCC(=O)N1C[C@]12CC[C@@H](C)[C@H](C)[C@H]1[C@H]1C(=O)C=C3[C@@]4(C)C=C(C#N)C(=O)C(C)(C)[C@@H]4CC[C@@]3(C)[C@]1(C)CC2 [Compound T53] | 1.74 ± 0.47 | – | 0.173 ± 0.054 | 2.79 ± 0.59 | – | 0.82 ± 0.08 |
| C[C@@H]1[C@H]2[C@H]3C(=O)C=C4[C@@]5(C)C=C(C#N)C(=O)C(C)(C)[C@@H]5CC[C@@]4(C)[C@]3(C)CC[C@@]2(CN2NCCC2=O)CC[C@H]1C [Compound T54] | 4.92 ± 1.14 | 4.92 ± 1.14 | 0.403 ± 0.103 | 6.42 ± 1.07 | 6.42 ± 1.07 | 1.84 ± 0.45 |
| C[C@@H]1[C@H]2[C@H]3C(=O)C=C4[C@@]5(C)C=C(C#N)C(=O)C(C)(C)[C@@H]5CC[C@@]4(C)[C@]3(C)CC[C@@]2(CN2CCC2)CC[C@H]1C [Compound T55] | 14.4 ± 1.3 | 14.4 ± 1.3 | 1.12 ± 0.09 | 14.6 ± 3 | 14.6 ± 3 | 5.21 ± 2.77 |
| CO/N=C/[C@]12CC[C@@H](C)[C@H](C)[C@H]1[C@H]1C(=O)C=C3[C@@]4(C)C=C(C#N)C(=O)C(C)(C)[C@@H]4CC[C@@]3(C)[C@]1(C)CC2 [Compound T57] | 34.1 ± 4.98 | – | 2.73 ± 0.34 | 20.1 ± 6 | – | 8.81 ± 0.63 |
| C[C@@H]1[C@H]2[C@H]3C(=O)C=C4[C@@]5(C)C=C(C#N)C(=O)C(C)(C)[C@@H]5CC[C@@]4(C)[C@]3(C)CC[C@@]2(N2CCCC2=O)CC[C@H]1C [Compound T58] | 33.6 ± 3.3 | 33.6 ± 3.3 | 2.64 ± 0.47 | 26 ± 8.8 | 26 ± 8.8 | 8.67 ± 3.30 |
| C[C@@H]1[C@H]2[C@H]3C(=O)C=C4[C@@]5(C)C=C(C#N)C(=O)C(C)(C)[C@@H]5CC[C@@]4(C)[C@]3(C)CC[C@@]2(N2CCOC2=O)CC[C@H]1C [Compound T59] | 15.4 ± 1.2 | 15.4 ± 1.2 | 1.23 ± 0.26 | 16 ± 5 | 16 ± 5 | 5.03 ± 1.61 |
| C[C@@H]1[C@H]2[C@H]3C(=O)C=C4[C@@]5(C)C=C(C#N)C(=O)C(C)(C)[C@@H]5CC[C@@]4(C)[C@]3(C)CC[C@@]2(n2ccnn2)CC[C@H]1C [Compound T60] | 8.89 ± 1.13 | – | 0.791 ± 0.111 | 18.2 ± 6.2 | – | 4.94 ± 1.78 |
| C[C@@H]1[C@H]2[C@H]3C(=O)C=C4[C@@]5(C)C=C(C#N)C(=O)C(C)(C)[C@@H]5CC[C@@]4(C)[C@]3(C)CC[C@@]2(n2cnnn2)CC[C@H]1C [Compound T61] | 7.53 ± 2.25 | – | 0.601 ± 0.122 | 12.5 ± 7.3 | – | 4.11 ± 0.26 |
| C[C@@H]1[C@H]2[C@H]3C(=O)C=C4[C@@]5(C)C=C(C#N)C(=O)C(C)(C)[C@@H]5CC[C@@]4(C)[C@]3(C)CC[C@@]2(n2ccnc2)CC[C@H]1C [Compound T62] | 19.7 ± 2 | 19.7 ± 2 | 1.55 ± 0.28 | 23.4 ± 5.4 | 23.4 ± 5.4 | 8.76 ± 3.40 |
| C[C@@H]1[C@H]2[C@H]3C(=O)C=C4[C@@]5(C)C=C(C#N)C(=O)C(C)(C)[C@@H]5CC[C@@]4(C)[C@]3(C)CC[C@@]2(n2cc(Br)cn2)CC[C@H]1C [Compound T63] | 76 ± 9.6 | – | 6.8 ± 1.1 | 58.4 ± 9.1 | – | 23.3 ± 10.3 |
| C[C@@H]1[C@H]2[C@H]3C(=O)C=C4[C@@]5(C)C=C(C#N)C(=O)C(C)(C)[C@@H]5CC[C@@]4(C)[C@]3(C)CC[C@@]2(n2cccn2)CC[C@H]1C [Compound T64] | 64 ± 7.6 | – | 6.07 ± 0.87 | 35.8 ± 6.1 | – | 14.80 ± 8.92 |
| CCNC(=O)N[C@]12CC[C@@H](C)[C@H](C)[C@H]1[C@H]1C(=O)C=C3[C@@]4(C)C=C(C#N)C(=O)C(C)(C)[C@@H]4CC[C@@]3(C)[C@]1(C)CC2 [Compound T65] | 12.9 ± 2 | – | 1.14 ± 0.20 | 25.5 ± 4.1 | – | 7.42 ± 3.56 |
| COC(=O)N[C@]12CC[C@@H](C)[C@H](C)[C@H]1[C@H]1C(=O)C=C3[C@@]4(C)C=C(C#N)C(=O)C(C)(C)[C@@H]4CC[C@@]3(C)[C@]1(C)CC2 [Compound T66] | 9.91 ± 0.25 | – | 0.857 ± 0.057 | 11 ± 3 | – | 4.64 ± 0.70 |
| C[C@@H]1[C@H]2[C@H]3C(=O)C=C4[C@@]5(C)C=C(C#N)C(=O)C(C)(C)[C@@H]5CC[C@@]4(C)[C@]3(C)CC[C@@]2(F)CC[C@H]1C [Compound T67] | 11.5 ± 1.6 | – | 0.984 ± 0.119 | 12.2 ± 3.5 | – | 3.79 ± 1.16 |
| C[C@@H]1[C@H]2[C@H]3C(=O)C=C4[C@@]5(C)C=C(C#N)C(=O)C(C)(C)[C@@H]5CC[C@@]4(C)[C@]3(C)CC[C@@]2(O)CC[C@H]1C [Compound T68] | 7.56 ± 0.77 | – | 0.575 ± 0.141 | 7.24 ± 0.77 | – | 2.70 ± 0.28 |
| Cc1nnc([C@]23CC[C@@H](C)[C@H](C)[C@H]2[C@H]2C(=O)C=C4[C@@]5(C)C=C(C#N)C(=O)C(C)(C)[C@@H]5CC[C@@]4(C)[C@]2(C)CC3)o1 [Compound T69] | 8.08 ± 1.98 | 8.08 ± 1.98 | 0.673 ± 0.139 | 16.9 ± 5 | 16.9 ± 5 | 4.94 ± 1.27 |
| C[C@@H]1[C@H]2[C@H]3C(=O)C=C4[C@@]5(C)C=C(C#N)C(=O)C(C)(C)[C@@H]5CC[C@@]4(C)[C@]3(C)CC[C@@]2(C(=O)N2CCC2)CC[C@H]1C [Compound T70] | 21.6 ± 1.3 | – | 1.78 ± 0.34 | 19.6 ± 6.1 | – | 8.82 ± 3.07 |
| C[C@@H]1[C@H]2[C@H]3C(=O)C=C4[C@@]5(C)C=C(C#N)C(=O)C(C)(C)[C@@H]5CC[C@@]4(C)[C@]3(C)CC[C@@]2(C(=O)N2CCCC2)CC[C@H]1C [Compound T71] | 29.3 ± 8.1 | – | 2.95 ± 0.14 | 19.7 ± 1.8 | – | 13 ± 2.7 |
| C[C@@H]1[C@H]2[C@H]3C(=O)C=C4[C@@]5(C)C=C(C#N)C(=O)C(C)(C)[C@@H]5CC[C@@]4(C)[C@]3(C)CC[C@@]2(C(=O)NO)CC[C@H]1C [Compound T72] | 17.2 ± 7 | – | 1.71 ± 0.33 | 36.1 ± 13.8 | – | 20.20 ± 5.71 |
| CONC(=O)[C@]12CC[C@@H](C)[C@H](C)[C@H]1[C@H]1C(=O)C=C3[C@@]4(C)C=C(C#N)C(=O)C(C)(C)[C@@H]4CC[C@@]3(C)[C@]1(C)CC2 [Compound T73] | 7.93 ± 0.82 | – | 0.681 ± 0.159 | 23.1 ± 6.6 | – | 7.02 ± 1.96 |
| C[C@@H]1[C@H]2[C@H]3C(=O)C=C4[C@@]5(C)C=C(C#N)C(=O)C(C)(C)[C@@H]5CC[C@@]4(C)[C@]3(C)CC[C@@]2(N2CCC2=O)CC[C@H]1C [Compound T74] | 20 ± 2 | 20 ± 2 | 1.67 ± 0.13 | 21 ± 7.6 | 21 ± 7.6 | 5.91 ± 0.94 |
